Columns and labels:
[1] = human, in vivo
Description: The study used a standard 3 + 3 dose escalation design. The starting dose of fuzuloparib was 40 mg twice daily (bid) in combination with a fixed dose of apatinib at 250 mg once daily (qd); fuzuloparib could be dose escalated in 20 mg increments to up to 100 mg. An additional dose level of fuzuloparib 80 mg bid plus apatinib 375 mg qd was planned after assessment of the regimen of fuzuloparib 80 mg bid plus apatinib 250 mg qd. If dose escalation of fuzuloparib to 100 mg was completed, dose escalation for apatinib was initiated with two dose level planned: 375 mg qd and 500 mg qd (with fuzuloparib fixed at 100 mg bid). During dose escalation, the next-higher dose level was opened if less than one-third of patients in the previous dose level experienced a dose-limiting toxicity (DLT). Based on preliminary safety and efficacy data in the dose-escalation cohort, dose levels for PK-expansion were selected, with a total of 8–12 patients enrolled in each level. All patients received a single dose of oral fuzuloparib on day 1 and a single dose of oral apatinib on day 4 in cycle 0 (6 days in total), followed by continuous dosing of fuzuloparib and apatinib in 28-day cycles starting on cycle 1 day 1. Treatment continued until disease progression, intolerable toxicity, or patient withdrawal.
Pharmacokinetic sampling for single dose of fuzuloparib and apatinib was done on day 1 and day 4 (pre-dose and 0.5, 1, 2, 3, 4, 8, 12, 24, 48 h post-dose) of cycle 0, respectively; sampling for continuous dosing of the combination therapy was done on days 1 (pre-dose and 0.5, 1, 2, 3, 4, 8, 12, 24 h post-dose), 8 (pre-dose), 15 (pre-dose), 22 (pre-dose) of cycle 1, and day 1 (pre-dose and 0.5, 1, 2, 3, 4, 8, 12, 24 h post-dose) of cycle 2.
All enrolled patients who received at least one dose of study drug were included in the efficacy and safety analysis. […] Time-to-event endpoints were estimated using the Kaplan–Meier method, with the 95% CIs calculated using the Brookmeyer and Crowley method. PK parameters were calculated using the WinNonlin noncompartmental model. […]

[2] = system: gBRCAmut, platinum-sensitive OC; design: method as in PMID 33558426; settings: fuzuloparib monotherapy, phase 2, gBRCAmut platinum-sensitive OC; cited from earlier work

SMILES | Dose dependence of apatinib plasma exposure (AUC0-∞) [1] | Reduction of apatinib AUC0-24 h (cycle 2 day 1) vs AUC0-∞ after single apatinib monotherapy dose (cycle 0 day 4) [1] | Dose dependence of fuzuloparib plasma exposure (AUC0-12 h) [1] | Median PFS [2] [months] | ORR [2] [%]
N#CC1(c2ccc(NC(=O)c3cccnc3NCc3ccncc3)cc2)CCCC1 [apatinib] | increased in a dose-dependent manner | 47.7%-65.0% |  |  | 
O=C(c1cc(Cc2n[nH]c(=O)c3ccccc23)ccc1F)N1CCn2nc(C(F)(F)F)nc2C1 [fuzuloparib] |  |  | increased in a dose-dependent manner | 12.0 | 69.9
